Results: the NIST ThermoML archive (doi:10.1016/j.jct.2015.03.019)
Several values for one entry are separate records, joined by “and”; a condition that tells them apart may be missing. Equal values may be shown once.

Assay: molar heat capacity at constant pressure
Details: 101.33 kPa, Crystal, Small (less than 1 g) adiabatic calorimetry

CC(C)(C)c1ccc(Oc2ccccc2)cc1 [4-tert-butylphenyl phenyl ether]
Details | molar heat capacity at constant pressure
5 K | 0.671 J/K/mol
7.93 K | 2.627 J/K/mol
8.1 K | 2.719 J/K/mol
8.28 K | 3.035 J/K/mol
8.43 K | 3.06 J/K/mol
8.59 K | 3.268 J/K/mol
8.75 K | 3.459 J/K/mol
8.9 K | 3.675 J/K/mol
9.05 K | 3.725 J/K/mol
9.2 K | 3.958 J/K/mol
9.49 K | 4.365 J/K/mol
9.63 K | 4.573 J/K/mol
9.78 K | 4.881 J/K/mol
9.92 K | 5.097 J/K/mol
10 K | 4.906 J/K/mol
10.28 K | 5.488 J/K/mol
10.56 K | 5.961 J/K/mol
10.85 K | 6.419 J/K/mol
11.15 K | 6.884 J/K/mol
12.02 K | 8.298 J/K/mol
12.32 K | 8.896 J/K/mol
12.61 K | 9.395 J/K/mol
12.91 K | 9.977 J/K/mol
13.21 K | 10.48 J/K/mol
13.51 K | 11.06 J/K/mol
13.81 K | 11.64 J/K/mol
14.11 K | 12.22 J/K/mol
14.41 K | 12.72 J/K/mol
14.71 K | 13.3 J/K/mol
15 K | 13.89 J/K/mol
15.02 K | 13.97 J/K/mol
15.32 K | 14.55 J/K/mol
15.63 K | 15.05 J/K/mol
15.94 K | 15.71 J/K/mol
16.25 K | 16.3 J/K/mol
16.56 K | 16.96 J/K/mol
16.87 K | 17.63 J/K/mol
17.18 K | 18.13 J/K/mol
17.49 K | 18.96 J/K/mol
17.8 K | 19.54 J/K/mol
18.12 K | 20.12 J/K/mol
18.43 K | 20.79 J/K/mol
18.74 K | 21.29 J/K/mol
19.06 K | 21.95 J/K/mol
19.37 K | 22.7 J/K/mol
19.68 K | 23.36 J/K/mol
20 K | 23.95 J/K/mol and 23.95 J/K/mol
20.57 K | 25.05 J/K/mol
21.33 K | 26.59 J/K/mol
22.1 K | 28.07 J/K/mol
22.86 K | 29.59 J/K/mol
23.63 K | 31.1 J/K/mol
24.4 K | 32.68 J/K/mol
25 K | 33.84 J/K/mol
25.18 K | 34.25 J/K/mol
25.95 K | 35.83 J/K/mol
26.73 K | 37.02 J/K/mol
27.51 K | 38.42 J/K/mol
28.29 K | 39.88 J/K/mol
29.07 K | 41.31 J/K/mol
29.85 K | 42.77 J/K/mol
30 K | 43.07 J/K/mol
30.63 K | 44.28 J/K/mol
31.42 K | 45.65 J/K/mol
32.21 K | 47 J/K/mol
33 K | 48.3 J/K/mol
33.79 K | 49.62 J/K/mol
34.58 K | 50.93 J/K/mol
35 K | 51.38 J/K/mol
35.37 K | 52 J/K/mol
36.16 K | 53.14 J/K/mol
36.95 K | 54.29 J/K/mol
37.74 K | 55.42 J/K/mol
38.53 K | 56.54 J/K/mol
39.32 K | 57.57 J/K/mol
40 K | 58.7 J/K/mol
40.11 K | 58.69 J/K/mol
40.91 K | 59.85 J/K/mol
41.7 K | 61.07 J/K/mol
42.49 K | 62.01 J/K/mol
43.29 K | 63.2 J/K/mol
44.08 K | 64.35 J/K/mol
44.88 K | 65.44 J/K/mol
45 K | 65.52 J/K/mol
45.68 K | 66.42 J/K/mol
46.48 K | 67.56 J/K/mol
47.28 K | 68.56 J/K/mol
48.08 K | 69.68 J/K/mol
48.87 K | 70.7 J/K/mol
49.67 K | 71.74 J/K/mol
50 K | 72.09 J/K/mol
50.47 K | 72.8 J/K/mol
51.27 K | 73.72 J/K/mol
52.07 K | 74.77 J/K/mol
52.87 K | 75.83 J/K/mol
53.67 K | 77.23 J/K/mol
56.08 K | 80.21 J/K/mol
56.88 K | 81.22 J/K/mol
57.68 K | 82.24 J/K/mol
58.49 K | 83.23 J/K/mol
59.3 K | 84.31 J/K/mol
60 K | 85.31 J/K/mol
60.1 K | 85.31 J/K/mol
60.91 K | 86.3 J/K/mol
61.71 K | 87.3 J/K/mol
62.51 K | 88.3 J/K/mol
64.11 K | 90.88 J/K/mol
64.92 K | 91.87 J/K/mol
65.72 K | 92.71 J/K/mol
66.52 K | 93.62 J/K/mol
67.33 K | 94.45 J/K/mol
68.13 K | 95.12 J/K/mol
68.94 K | 96.12 J/K/mol
69.74 K | 96.95 J/K/mol
70 K | 97.28 J/K/mol
70.74 K | 97.94 J/K/mol
71.95 K | 99.19 J/K/mol
73.16 K | 100.61 J/K/mol
74.36 K | 101.94 J/K/mol
75.56 K | 102.6 J/K/mol
76.77 K | 103.6 J/K/mol
77.98 K | 104.6 J/K/mol
79.18 K | 105.68 J/K/mol
80 K | 106.59 J/K/mol
80.21 K | 106.67 J/K/mol
80.39 K | 106.92 J/K/mol
81.01 K | 107.17 J/K/mol
81.6 K | 108.09 J/K/mol
81.81 K | 108.17 J/K/mol
82.62 K | 108.84 J/K/mol
82.8 K | 109.25 J/K/mol
83.42 K | 109.58 J/K/mol
84.01 K | 110.25 J/K/mol
85.83 K | 111.83 J/K/mol
86.63 K | 112.66 J/K/mol
87.43 K | 113.33 J/K/mol
88.23 K | 114.16 J/K/mol
89.03 K | 115.07 J/K/mol
89.84 K | 115.9 J/K/mol
90 K | 115.99 J/K/mol
90.64 K | 116.65 J/K/mol
91.44 K | 117.48 J/K/mol
92.24 K | 118.23 J/K/mol
93.05 K | 119.15 J/K/mol
93.85 K | 119.73 J/K/mol
94.65 K | 120.48 J/K/mol
95.46 K | 121.14 J/K/mol
96.26 K | 121.97 J/K/mol
97.06 K | 122.72 J/K/mol
97.87 K | 123.22 J/K/mol
98.67 K | 124.05 J/K/mol
99.47 K | 125.13 J/K/mol
100 K | 125.71 J/K/mol
100.28 K | 125.8 J/K/mol
101.28 K | 127.13 J/K/mol
102.48 K | 128.13 J/K/mol
103.69 K | 129.21 J/K/mol
104.89 K | 130.45 J/K/mol
106.1 K | 131.45 J/K/mol
107.32 K | 132.78 J/K/mol
108.53 K | 133.86 J/K/mol
109.74 K | 134.86 J/K/mol
110 K | 135.19 J/K/mol
110.96 K | 136.11 J/K/mol
112.17 K | 137.19 J/K/mol
113.39 K | 138.27 J/K/mol
114.61 K | 139.43 J/K/mol
115.83 K | 140.51 J/K/mol
117.05 K | 141.6 J/K/mol
118.28 K | 142.59 J/K/mol
119.5 K | 143.76 J/K/mol
